In PubChem BioAssay AID180 (DTP/NCI, 2004):
Several values for one entry are separate records, joined by “and”; a condition that tells them apart may be missing. Equal values may be shown once.

Test system: BDF1 mice, Adenocarcinoma 755 s.c., tumor weight T/C
Assay: NCI In Vivo Anticancer Drug Screen. Data for tumor model Adenocarcinoma 755 (subcutaneous) in B6D2F1 (BDF1) mice
Conditions: endpoint: mean tumor weight, higher = larger tumour
Method in brief: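 Readout: T/C, i.e. treated-group measurement over vehicle-control measurement. Endpoint is survival or tumor size in tumor-bearing mice given compound.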

[1] = dose: 25.0 mg/kg/injection, schedule: Q01DX011 (ip), vehicle: methylcellulose (MC)

Structure (SMILES): CCCCSc1ncnc2c1ncn2C1CCCCO1 (stereo unspecified)
- T/C (dose: 9.2 mg/kg/injection, schedule: Q01DX011 (ip), vehicle: carboxymethylcellulose (CMC)): 78 % of control
- T/C (dose: 14.0 mg/kg/injection, schedule: Q01DX011 (ip), vehicle: carboxymethylcellulose (CMC)): 58 % of control
- T/C (dose: 21.0 mg/kg/injection, schedule: Q01DX011 (ip), vehicle: carboxymethylcellulose (CMC)): 35 % of control
- T/C (dose: 31.0 mg/kg/injection, schedule: Q01DX011 (ip), vehicle: carboxymethylcellulose (CMC)): 17 % of control
- T/C (dose: 47.0 mg/kg/injection, schedule: Q01DX011 (ip), vehicle: carboxymethylcellulose (CMC)): 21 % of control
- T/C (dose: 63.0 mg/kg/injection, schedule: Q01DX011 (ip), vehicle: carboxymethylcellulose (CMC)): 11 % of control
- T/C (dose: 94.0 mg/kg/injection, schedule: Q01DX011 (ip), vehicle: carboxymethylcellulose (CMC)): 8 % of control
- T/C (dose: 125.0 mg/kg/injection, schedule: Q01DX011 (ip), vehicle: carboxymethylcellulose (CMC)): 9 % of control
- T/C (dose: 175.0 mg/kg/injection, schedule: Q01DX011 (ip), vehicle: carboxymethylcellulose (CMC)): 12 % of control
- T/C (dose: 188.0 mg/kg/injection, schedule: Q01DX011 (ip), vehicle: carboxymethylcellulose (CMC)): 2 % of control
- T/C (dose: 262.5 mg/kg/injection, schedule: Q01DX011 (ip), vehicle: carboxymethylcellulose (CMC)): 14 % of control

Structure (SMILES): Cn1c(=O)c2c(nc(C#N)n2C)n(C)c1=O
- T/C [1]: 104 % of control
- T/C (dose: 75.0 mg/kg/injection, schedule: Q01DX011 (ip), vehicle: methylcellulose (MC)): 102 % of control
- T/C (dose: 225.0 mg/kg/injection, schedule: Q01DX011 (ip), vehicle: methylcellulose (MC)): 58 % of control

Structure (SMILES): C(=N\OCCc1ccccc1)/c1cccnc1
- T/C (dose: 88.0 mg/kg/injection, schedule: Q01DX011 (ip), vehicle: methylcellulose (MC)): 70 % of control

Structure (SMILES): CCCOP(=S)(N1CC1)N1CC1
- T/C (dose: 3.3 mg/kg/injection, schedule: Q01DX011 (ip), vehicle: methylcellulose (MC)): 74 % of control
- T/C (dose: 6.8 mg/kg/injection, schedule: Q01DX011 (ip), vehicle: methylcellulose (MC)): 77 % of control
- T/C (dose: 13.5 mg/kg/injection, schedule: Q01DX011 (ip), vehicle: methylcellulose (MC)): 40 % of control

Structure (SMILES): Nc1nc(SCc2ccccc2[N+](=O)[O-])c2ncn(C3OC(CO)C(O)C3O)c2n1 (stereo unspecified)
- T/C (dose: 12.5 mg/kg/injection, schedule: Q01DX011 (ip), vehicle: methylcellulose (MC)): 21 % of control
- T/C [1]: 7 % of control
- T/C (dose: 50.0 mg/kg/injection, schedule: Q01DX011 (ip), vehicle: methylcellulose (MC)): 2 % of control

Structure (SMILES): S=c1nc[nH]c2c1ncn2C1CCCC1
- T/C (dose: 3.0 mg/kg/injection, schedule: Q01DX011 (ip), vehicle: methylcellulose (MC)): 69 % of control
- T/C (dose: 6.0 mg/kg/injection, schedule: Q01DX011 (ip), vehicle: methylcellulose (MC)): 50 % of control
- T/C (dose: 12.0 mg/kg/injection, schedule: Q01DX011 (ip), vehicle: methylcellulose (MC)): 22 % of control
- T/C (dose: 15.0 mg/kg/injection, schedule: Q01DX011 (ip), vehicle: carboxymethylcellulose (CMC)): 12 % of control and 17 % of control
- T/C (dose: 15.0 mg/kg/injection, schedule: Q01DX011 (oral), vehicle: carboxymethylcellulose (CMC)): 13 % of control
- T/C [1]: 4 % of control and 5 % of control
- T/C (dose: 30.0 mg/kg/injection, schedule: Q01DX011 (ip), vehicle: carboxymethylcellulose (CMC)): 6 % of control and 10 % of control
- T/C (dose: 30.0 mg/kg/injection, schedule: Q01DX011 (oral), vehicle: carboxymethylcellulose (CMC)): 7 % of control
- T/C (dose: 60.0 mg/kg/injection, schedule: Q01DX011 (ip), vehicle: carboxymethylcellulose (CMC)): 2 % of control and 3 % of control
- T/C (dose: 60.0 mg/kg/injection, schedule: Q01DX011 (oral), vehicle: carboxymethylcellulose (CMC)): 4 % of control
- T/C (dose: 120.0 mg/kg/injection, schedule: Q01DX011 (oral), vehicle: carboxymethylcellulose (CMC)): 3 % of control
- T/C (dose: 162.0 mg/kg/injection, schedule: Q01DX001 (ip), vehicle: carboxymethylcellulose (CMC)): 94 % of control
- T/C (dose: 325.0 mg/kg/injection, schedule: Q01DX001 (ip), vehicle: carboxymethylcellulose (CMC)): 7 % of control
- T/C (dose: 1300.0 mg/kg/injection, schedule: Q01DX001 (ip), vehicle: carboxymethylcellulose (CMC)): 1 % of control

Structure (SMILES): Nc1nnnc2nc[nH]c12
- T/C (dose: 12.5 mg/kg/injection, schedule: Q01DX011 (ip), vehicle: carboxymethylcellulose (CMC)): 75 % of control
